In patent US5698550A, “Tetralin and chroman derivatives useful in the treatment of asthma, arthritis and related diseases” (Pfizer Inc., priority 1993, dated 1997):

Test system: PAF-induced lethality in CD1 male mice
Test: PAF lethality assay
Type: in vivo
Conditions: Mus musculus; positive control; oral dosing 45 minutes before i.v. PAF injection; mortality compared to controls; read-out: approximate ED 50
Protocol: To evaluate the compounds of the formula (I) in vivo, they are tested by the so-called PAF lethality assay procedure:
Mice: CD1 males, all approximately the same weight (approximately 26 grams), 12 per group.
Vehicle for oral drug dosing: EES (5% ethanol, 5% emulphor, 90% saline). Stored at room temperature.
Drugs: For routine screening at 50 mg/kg, 20 mg drug is dissolved in 4 ml EES, using sonication in a sonicator bath or grinding in a Ten Broeck grinder to dissolve drug if necessary. If solubility is still a problem, the drug is used as a suspension.
Vehicle for i.v. Injection: Saline with 2.5 mg/ml Bovine Serum Albumin (BSA, Sigma #A4378) and 0.05 mg/ml Propranolol (Sigma #P0884). Prepared fresh daily and kept at room temperature.
Platelet Activating Factor (PAF): A […] stock solution is prepared by dissolving 1 mg PAF (Calbiochem #429460) in 0.18 ml ethanol. This is stored at -20° C. and is diluted in vehicle (see above) the day of use. The concentration of PAF used is calibrated so that when injected at 0.1 ml/10 grams body weight, it will kill approximately 80% of untreated controls. This is usually about […] (a 1 to 2034 dilution from stock). […]
45 minutes before PAF injection, mice are treated orally with drug using 0.1 ml/10 grams body weight. […] Results are expressed as percent mortality as compared to controls. […]

In the case of `O=C1CCN(c2ccccc2)N1` [Phenidone], the ED50 is reported as roughly 25 mg/kg.
